In general, EC50 refers to the concentration giving half of the maximal effect.

One assay has as its system HBV rcDNA. The experiment in a line: HepDE19 assay with bDNA quantitation of HBV rcDNA. The format is cell-based, hepatitis B virus. The settings on record: HepDE19 assay, inhibition of formation of rcDNA; read-out: DE-19bDNA EC50. The gist of the method:
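HepDE19 cells (HepG2-derived, Tet-regulated HBV replication) were deprived of tetracycline and then exposed to compounds for 7 days at 37 °C in 0.5% DMSO, 8-point titration from 25 μM. rcDNA was quantified by bDNA and EC50/EC90 came from 4-parameter fits. CC50 was measured by CellTiter-Glo ATP content on replicate plates after 4 days.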
In the case of `Cc1[nH]c(=O)c2ccccc2c1C(C)N(C)C(=O)Nc1ccc(F)c(Cl)c1` (single isomer, unassigned) [Compound 222, 3-(3-Chloro-4-fluorophenyl)-1-methyl-1-(1-(3-methyl-1-oxo-1,2-dihydroisoquinolin-4-yl)ethyl)urea], the EC50 was 0.62 µM.
The same measure, in the same setting: with `CC(c1c[nH]c(=O)c2ccccc12)N(CC1CCCC1)C(=O)Nc1ccc(F)c(Cl)c1` (single isomer, unassigned) [Compound 193, 3-(3-Chloro-4-fluorophenyl)-1-(cyclopentylmethyl)-1-(1-(1-oxo-1,2-dihydroisoquinolin-4-yl)ethyl)urea] the figure was 0.01 µM; with `CC(c1cnc(NCc2ncn(C)n2)c2ccccc12)N(C)C(=O)Nc1ccc(F)c(Cl)c1` (single isomer, unassigned) [Compound 245, 3-(3-Chloro-4-fluorophenyl)-1-methyl-1-(1-(1-(((1-methyl-1H-1,2,4-triazol-3-yl)methyl)amino)isoquinolin-4-yl)ethyl)urea], 13 µM.
Turning to `CCCCN(C(=O)Nc1ccc(F)c(Cl)c1)C(C)c1cnc(OC)c2ccccc12` (single isomer, unassigned) [Compound 62, 1-Butyl-3-(3-chloro-4-fluorophenyl)-1-(1-(1-methoxyisoquinolin-4-yl)ethyl)urea], the EC50 is 7.1 µM.
`CC(c1c[nH]c(=O)c2cnccc12)N(CCCO)C(=O)Nc1ccc(F)c(Cl)c1` (single isomer, unassigned) [Compound 251, 3-(3-Chloro-4-fluorophenyl)-1-(3-hydroxypropyl)-1-(1-(1-oxo-1,2-dihydro-2,7-naphthyridin-4-yl)ethyl)urea]: the EC50 amounted to 15 µM.
For `CC(c1c[nH]c(=O)c2ccccc12)N(CCNCC(F)(F)F)C(=O)Nc1ccc(F)c(Cl)c1` (single isomer, unassigned) [Compound 163, 3-(3-Chloro-4-fluorophenyl)-1-(1-(1-oxo-1,2-dihydroisoquinolin-4-yl)ethyl)-1-(2-((2,2,2-trifluoroethyl)amino)ethyl)urea], the EC50 turned out to be 5.3 µM.
As for `COc1ncc(C(C)N(CC2CC2)C(=O)Nc2ccc(F)c(Cl)c2)c2ccccc12` (single isomer, unassigned) [Compound 63, 3-(3-Chloro-4-fluorophenyl)-1-(cyclopropylmethyl)-1-(1-(1-methoxyisoquinolin-4-yl)ethyl)urea], the EC50 turned out to be 5.8 µM.
Turning to `CC(c1c[nH]c(=O)c2ccccc12)N(C[C@H]1CCCO1)C(=O)Nc1ccc(F)c(Cl)c1` (single isomer, unassigned) [Compound 155], the concentration giving a half-maximal response (EC50) worked out at 7.7 µM.
For `CCn1cc(C(C)N(C)C(=O)Nc2ccc(F)c(Cl)c2)c2ccccc2c1=O` (single isomer, unassigned) [Compound 183, 3-(3-Chloro-4-fluorophenyl)-1-(1-(2-ethyl-1-oxo-1,2-dihydroisoquinolin-4-yl)ethyl)-1-methylurea], the EC50 came to 18 µM.
Turning to `CC(c1cnc(N)c2ccccc12)N(C)C(=O)Nc1ccc(F)c(Cl)c1` (single isomer, unassigned) [Compound 239, 1-(1-(1-Aminoisoquinolin-4-yl)ethyl)-3-(3-chloro-4-fluorophenyl)-1-methylurea], the EC50 amounted to 0.21 µM.
On to `Cc1cc(NC(=O)N(C)C(C)c2c(C)[nH]c(=O)c3ccccc23)ccc1F` (single isomer, unassigned) [Compound 236, 3-(4-Fluoro-3-methylphenyl)-1-methyl-1-(1-(3-methyl-1-oxo-1,2-dihydroisoquinolin-4-yl)ethyl)urea], for which the EC50 was determined as 0.41 µM.

The same assay, now with this note: HepDE19 assay, inhibition of formation of relaxed circular DNA (rcDNA), bDNA quantitation; read-out: DE-19bDNA EC50.
For the compound `CC(c1c[nH]c(=O)c2c(F)cc(F)cc12)N(C)C(=O)Nc1ccc(F)cc1` (single isomer, unassigned) [Compound 371, 1-(1-(6,8-Difluoro-1-oxo-1,2-dihydroisoquinolin-4-yl)ethyl)-3-(4-fluorophenyl)-1-methylurea], the EC50 was 0.053 µM.
Turning to `CC(c1c[nH]c(=O)c2c(F)c(F)ccc12)N(C)C(=O)NCc1ccc(F)c(F)c1` (single isomer, unassigned) [Compound 489, 1-(1-(7,8-Difluoro-1-oxo-1,2-dihydroisoquinolin-4-yl)ethyl)-3-(3,4-difluorobenzyl)-1-methylurea], the EC50 was 19 µM.
On the same count and under the same terms, with `CC(c1cn(C)c(=O)c2cc(F)c(F)cc12)N(C)C(=O)Nc1ccc(F)c(Cl)c1` (single isomer, unassigned) [Compound 341, 3-(3-Chloro-4-fluorophenyl)-1-(1-(6,7-difluoro-2-methyl-1-oxo-1,2-dihydroisoquinolin-4-yl)ethyl)-1-methylurea] the figure was 0.011 µM; with `CC(c1c[nH]c(=O)c2c(F)cc(F)cc12)N(CCS(N)(=O)=O)C(=O)Nc1ccc(F)c(Cl)c1` (single isomer, unassigned) [Compound 389, 2-(3-(3-Chloro-4-fluorophenyl)-1-(1-(6,8-difluoro-1-oxo-1,2-dihydroisoquinolin-4-yl)ethyl)ureido) ethane-1-sulfonamide], 3.3 µM; with `CC(c1cn(C)c(=O)c2cc(F)c(F)cc12)N(CCCO)C(=O)Nc1ccc(F)c(Cl)c1` (single isomer, unassigned) [Compound 351, 3-(3-Chloro-4-fluorophenyl)-1-(1-(6,7-difluoro-2-methyl-1-oxo-1,2-dihydroisoquinolin-4-yl)ethyl)-1-(3-hydroxypropyl)urea], 0.007 µM.
Turning to `CC(c1c[nH]c(=O)c2c(F)c(F)ccc12)N(C)C(=O)Nc1ccc2cc[nH]c2c1` (single isomer, unassigned) [Compound 498, 1-(1-(7,8-Difluoro-1-oxo-1,2-dihydroisoquinolin-4-yl)ethyl)-3-(1H-indol-6-yl)-1-methylurea], the EC50 is 11 µM.
Still for that read-out and setting: with `CC(c1c[nH]c(=O)c2c(F)c(F)ccc12)N(C)C(=O)Nc1ccc(F)c(F)c1` (single isomer, unassigned) [Compound 434, 1-(1-(7,8-Difluoro-1-oxo-1,2-dihydroisoquinolin-4-yl)ethyl)-3-(3,4-difluorophenyl)-1-methylurea] the figure was 3.2 µM; with `CC(c1c[nH]c(=O)c2cc(F)c(F)cc12)N(CCCO)C(=O)Nc1ccc(F)c(Cl)c1` (single isomer, unassigned) [Compound 289, 3-(3-Chloro-4-fluorophenyl)-1-(1-(6,7-difluoro-1-oxo-1,2-dihydroisoquinolin-4-yl)ethyl)-1-(3-hydroxypropyl)urea], 0.37 µM.
As for `CC(c1c[nH]c(=O)c2ccccc12)N(Cc1cscn1)C(=O)Nc1ccc(F)c(Cl)c1` (single isomer, unassigned) [Compound 313, 3-(3-Chloro-4-fluorophenyl)-1-(1-(1-oxo-1,2-dihydroisoquinolin-4-yl)ethyl)-1-(thiazol-4-ylmethyl)urea], the EC50 was determined as 0.4 µM.
In the case of `CC(c1c[nH]c(=O)c2cc(F)ccc12)N(CCS(N)(=O)=O)C(=O)Nc1ccc(F)c(Cl)c1` (single isomer, unassigned) [Compound 383, 2-(3-(3-Chloro-4-fluorophenyl)-1-(1-(7-fluoro-1-oxo-1,2-dihydroisoquinolin-4-yl)ethyl)ureido) ethane-1-sulfonamide], the EC50 was found to be 7 µM.
On the same count and under the same terms, with `CC(c1c[nH]c(=O)c2ccc(F)cc12)N(CCS(N)(=O)=O)C(=O)Nc1ccc(F)c(Cl)c1` (single isomer, unassigned) [Compound 382, 2-(3-(3-Chloro-4-fluorophenyl)-1-(1-(6-fluoro-1-oxo-1,2-dihydroisoquinolin-4-yl)ethyl)ureido) ethane-1-sulfonamide] the figure was 0.016 µM.
Still for that read-out and setting: with `CNC(=O)c1ncc(C(C)N(C)C(=O)Nc2ccc(F)c(Cl)c2)c2ccccc12` (single isomer, unassigned) [Compound 316, 4-(1-(3-(3-Chloro-4-fluorophenyl)-1-methylureido)ethyl)-N-methylisoquinoline-1-carboxamide] the figure was 7.5 µM.

Still in this assay, the particulars now being: Hepatitis B virus, HepDE19, HepDE19 assay, inhibition of formation of rcDNA; read-out: DE-19bDNA EC50.
As to `CC(C)CN(C(=O)Nc1ccc(F)c(Cl)c1)C(C)c1c[nH]c(=O)c2cc(F)c(F)cc12` (single isomer, unassigned) [Compound 280, 3-(3-Chloro-4-fluorophenyl)-1-(1-(6,7-difluoro-1-oxo-1,2-dihydroisoquinolin-4-yl)ethyl)-1-isobutylurea], the EC50 stood at 0.21 µM.
For the compound `COc1ncc(C(CCO)NC(=O)Nc2ccc(F)c(Cl)c2)c2ccccc12` (racemic) [Compound 71, 1-(3-Chloro-4-fluorophenyl)-3-(3-hydroxy-1-(1-methoxyisoquinolin-4-yl)propyl)urea], the EC50 came to 4.4 µM.
Turning to `CC(=O)NCCN(C(=O)Nc1ccc(F)c(Cl)c1)C(C)c1c[nH]c(=O)c2ccccc12` (racemic) [Compound 100, N-(2-(3-(3-chloro-4-fluorophenyl)-1-(1-(1-oxo-1,2-dihydroisoquinolin-4-yl)ethyl)ureido)ethyl)acetamide], the EC50 stood at 1 µM.

The same assay, now with this note: Hepatitis B virus, HepDE19, read-out: DE-19bDNA EC50 (μM), HepDE19 assay, inhibition of formation of rcDNA.
Turning to `O=C(Nc1ccc(F)c(Cl)c1)N(Cc1c[nH]c(=O)c2ccccc12)CC1CC1` [Compound 53, 3-(3-Chloro-4-fluorophenyl)-1-(cyclopropylmethyl)-1-((1-oxo-1,2-dihydroisoquinolin-4-yl)methyl)urea], the EC50 amounted to 0.16 µM.

Still in this assay, the particulars now being: Hepatitis B virus, HepDE19, read-out: DE-19bDNA EC50 (μM), HepDE19 assay, inhibition of formation of relaxed circular DNA (rcDNA), bDNA quantitation.
For the compound `CC(c1c[nH]c(=O)c2c(F)c(F)ccc12)N(C)C(=O)Nc1cccnc1` (single isomer, unassigned) [Compound 450, 1-(1-(7,8-Difluoro-1-oxo-1,2-dihydroisoquinolin-4-yl)ethyl)-1-methyl-3-(pyridin-3-yl)urea], the EC50 was found to be 5.4 µM.
Turning to `CC(c1c[nH]c(=O)c2c(F)c(F)ccc12)N(C)C(=O)Nc1ccncc1` (single isomer, unassigned) [Compound 449, 1-(1-(7,8-Difluoro-1-oxo-1,2-dihydroisoquinolin-4-yl)ethyl)-1-methyl-3-(pyridin-4-yl)urea], the EC50 turned out to be 15 µM.

The values above are taken from patent publication US20230045421A1 (priority 2018, published 2023).
